Laboratory results reported in publication PMC3641313 (Korean Journal of Pediatrics, 2013).

What was measured:
[1] = system: influenza; type: in vivo, pediatric patients; details: proven influenza patients group in the first study period and second study period
[2] = system: influenza virus infection; details: treatment initiated within 48 hours of the onset of fever; cited from earlier work

CCOC(=O)C1=C[C@@H](OC(CC)CC)[C@H](NC(C)=O)[C@@H](N)C1 [Oseltamivir]
admission duration, Group A compared with group B [1]: significant shorter | frequency in pneumonia, Group A compared with group B [1]: lesser frequency | average duration of fever after the initiation of oseltamivir treatment [2]: 1.7 days | patients afebrile (<37.5℃) within one day [2]: 44% | patients recovered within two days [2]: 86%
